Patent publication US9611223B2, “3-aryl-5-substituted-isoquinolin-1-one compounds and their therapeutic use” (INSTITUTE OF CANCER RESEARCH: ROYAL CANCER HOSPITAL (THE), priority 2013, dated 2017)
Where two headings read alike, the source gives them in different places.

Columns and labels:
Format in all cases: cell-based
HT55 cells [1] = experiment: Tumour Cell Inhibition Assay (HT55 cells); conditions: Homo sapiens, HT55, 120 h, Tumour Cell Inhibition Assay, five day exposure
Procedure: (§1) Tumour Cell Inhibition in Colorectal Tumour Cells
(§2) In order to determine the efficacy of acute dosing of putative TNKS inhibitors, five day exposure cell viability assays were carried out. This included the sparse seeding of cells in a 96-well plate followed by continuous dosing of cells over a five day period.
(§3) Appropriate cell lines (HT55, COLO320DM and SW620) were seeded at 500 cells/well in a 96-well plate in MEM (HT55), RPMI (COLO320DM) or DMEM (SW620) supplemented with FBS. After overnight incubation, cells were treated with the appropriate putative TNKS inhibitor in 6 or 10 concentrations ranging from 0 μM to 10 μM at 0.2% final DMSO concentration in appropriate media supplemented with 10% or 0.5% FBS. Dosages were carried out in triplicate. Termination of the assay and measurement of cell viability was achieved by the use of Cell Titre Glo reagent and luminescence measurement on an appropriate plate reader.
(§4) Dose response curves used to determine SF50 values were Log transformed and analysed by non-linear regression analysis (variable slope) using Prism (GraphPad Software, Inc).

COLO320DM cells = experiment: Tumour Cell Inhibition Assay (COLO320DM cells); conditions: Homo sapiens, COLO 320DM, 120 h, five day exposure, read-out: cell inhibitory SF50 (COLO320DM)
Procedure: as §1, §2, §3, §4

HT55 cells [2] = experiment: Long-Term Clonogenic Assay (HT55 cells); conditions: Homo sapiens, 12-14 days, read-out: cell inhibitory SF50 (HT55)
Procedure: (§5) Clonogenic Inhibition in DLD1 or HT55 Cells
(§6) In order to determine the efficacy of chronic dosing of putative TNKS inhibitors, long term clonogenic or ‘colony formation’ assays were carried out. This included the sparse seeding of cells in a 6-well dish followed by continuous dosing of cells over 12-14 days (depending on relative cell growth). Appropriate cell lines (DLD1 or HT55) were seeded at 500 cells/well in a 6-well dish in DMEM supplemented with FBS. After overnight incubation, cells were treated with the appropriate putative TNKS inhibitor at 10 μM, 3 μM, 1 μM, 0.30 μM, 0.1 μM and 0 μM at 0.2-1% final DMSO concentration (cell line dependent) in DMEM supplemented with 10% FBS (DLD1 cells were dosed in DMEM supplemented with 0.5% FBS). Dosages were carried out in triplicate. Cell media containing compound or DMSO only was replenished every 48 hours. On termination of the assay, plates were read with Cell Titre Glo reagent and luminescence measured on an appropriate plate reader.
(§7) The data was normalised to the DMSO control and was expressed as surviving fraction as a function of inhibitor dose. Dose response curves used to determine SF50 values were Log transformed and analysed by non-linear regression analysis (variable slope) using Prism (GraphPad Software, Inc).

DLD1 cells = experiment: Long-Term Clonogenic Assay (DLD1 cells); conditions: Homo sapiens, DLD-1, 12-14 days, read-out: cell inhibitory SF50 (DLD1)
Procedure: as §5, §6, §7

SW620 cells = experiment: Tumour Cell Inhibition Assay (SW620 cells); conditions: Homo sapiens, SW-620, 120 h, five day exposure
Procedure: as §1, §2, §3, §4

Structure (SMILES) | IC50 (HT55 cells [1]; read-out: cell inhibitory SF50 (HT55)) | IC50 (COLO320DM cells) | IC50 (HT55 cells [2]) | IC50 (DLD1 cells) | IC50 (HT55 cells [1]; replicate, read-out: cell inhibitory SF50 (HT55), replicate) | IC50 (SW620 cells; read-out: cell inhibitory SF50 (SW620)) | IC50 (SW620 cells; replicate, read-out: cell inhibitory SF50 (SW620), replicate)
CN(C)C1CCN(Cc2ccc(-c3cc4c(C#N)cccc4c(=O)[nH]3)cc2)C1 (stereo not shown) [IQ-011] | < 5 µM | < 5 µM | < 5 µM | – | – | – | –
CN1CCN(Cc2ccc(-c3cc4c(C#N)cccc4c(=O)[nH]3)cc2)CC1 [IQ-002, 3-[4-(4-Methyl-piperazin-1-ylmethyl)-phenyl]-1-oxo-1,2-dihydro-isoquinoline-5-carbonitrile] | – | < 5 µM | < 5 µM | 2.3 µM | – | – | –
CN(C)C1CCN(Cc2ccc(-c3cc4c(C#N)cccc4c(=O)[nH]3)cc2)CC1 [IQ-012] | – | < 5 µM | < 5 µM | – | 1.8 µM | 3 µM | 1.7 µM
CN1CCN(Cc2ccc(-c3cc4c(C#N)cc(F)cc4c(=O)[nH]3)cc2)CC1 [IQ-014] | – | < 5 µM | < 5 µM | – | – | – | –
